Experimental data as given in paper PMC9090415, “Discovery of small molecule inhibitors of Plasmodium falciparum apicoplast DNA polymerase” (Journal of Enzyme Inhibition and Medicinal Chemistry, 2022).

Biological target: P. falciparum apicoplast DNA polymerase (Pf-apPOL) (Plasmodium falciparum, UniProt Q8ILY1)
Test: Fluorescence-based high-throughput DNA polymerase assay (molecular beacon), primary screen and dose-response
Type: biochemical
How it was run: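 Single-point screening used 10 µM compound with 20 nM polymerase, 20 nM hairpin substrate and 6 µM dNTPs for 90 min at 25 °C. Confirmatory titrations (2.5–80 µM) followed fluorescence at three times, and IC50 was derived from a fit including a cooperativity term n.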

[1] = primary screen value of the 186 hits; unit not given; 90 min, 10 µM

Sequence of P. falciparum apicoplast DNA polymerase (Pf-apPOL) (Q8ILY1 entry or part of it): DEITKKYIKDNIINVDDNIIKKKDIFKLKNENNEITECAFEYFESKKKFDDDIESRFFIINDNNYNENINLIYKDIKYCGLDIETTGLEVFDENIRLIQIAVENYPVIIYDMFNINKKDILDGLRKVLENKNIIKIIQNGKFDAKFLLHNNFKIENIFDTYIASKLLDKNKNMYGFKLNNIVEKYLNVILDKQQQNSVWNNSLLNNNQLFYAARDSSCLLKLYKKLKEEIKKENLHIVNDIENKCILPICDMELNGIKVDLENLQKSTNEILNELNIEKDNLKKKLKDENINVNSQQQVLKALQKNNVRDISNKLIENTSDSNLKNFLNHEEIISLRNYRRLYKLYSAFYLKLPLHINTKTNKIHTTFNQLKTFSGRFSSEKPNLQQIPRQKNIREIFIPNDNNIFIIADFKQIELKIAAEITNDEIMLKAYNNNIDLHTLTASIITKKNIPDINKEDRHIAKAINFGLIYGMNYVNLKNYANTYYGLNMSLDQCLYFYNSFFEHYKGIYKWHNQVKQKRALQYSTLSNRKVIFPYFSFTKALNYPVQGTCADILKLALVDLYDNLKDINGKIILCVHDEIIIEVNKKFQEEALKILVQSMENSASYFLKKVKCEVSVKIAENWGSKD

Cc1cccc(-c2nnc3ccc(NS(=O)(=O)c4ccc(C)c(C)c4)nn23)c1 [Molecule 40, Cc1cccc(c1)c1nnc2n1nc(cc2)NS(=O)(=O)c1ccc(c(c1)C)C]
% inhibition Apo pol 10' (DRC-1; 10'; concentration 2.5): 17.5333% | % inhibition Apo pol 10' (DRC-1; 10'; concentration 5): 15.8571% | % inhibition Apo pol 10' (DRC-1; 10'; concentration 10): 58.8718% | % inhibition Apo pol 10' (DRC-1; 10'; concentration 20): 64.4117% | % inhibition Apo pol 10' (DRC-1; 10'; concentration 40): 83.8171% | % inhibition Apo pol 10' (DRC-1; 10'; concentration 80): 87.6455% | % inhibition Apol 90' (DRC-1; 90'; concentration 2.5): 8.645% | % inhibition Apol 90' (DRC-1; 90'; concentration 5): 6.674% | % inhibition Apol 90' (DRC-1; 90'; concentration 10): 42.202% | % inhibition Apol 90' (DRC-1; 90'; concentration 20): 48.6788% | % inhibition Apol 90' (DRC-1; 90'; concentration 40): 74.666% | % inhibition Apol 90' (DRC-1; 90'; concentration 80): 86.8335% | % inhibition apPOL 180' (DRC-1; 180'; concentration 2.5): 2.98% | % inhibition apPOL 180' (DRC-1; 180'; concentration 5): 3.293% | % inhibition apPOL 180' (DRC-1; 180'; concentration 10): 32.359% | % inhibition apPOL 180' (DRC-1; 180'; concentration 20): 37.8584% | % inhibition apPOL 180' (DRC-1; 180'; concentration 40): 67.3017% | % inhibition apPOL 180' (DRC-1; 180'; concentration 80): 87.5255% | % inhibition Apo pol 5' (DRC-2; 5'; concentration 2.5): 5% | % inhibition Apo pol 5' (DRC-2; 5'; concentration 5): 15% | % inhibition Apo pol 5' (DRC-2; 5'; concentration 10): 22% | % inhibition Apo pol 5' (DRC-2; 5'; concentration 20): 26% | % inhibition Apo pol 5' (DRC-2; 5'; concentration 40): 22% | % inhibition Apo pol 5' (DRC-2; 5'; concentration 80): 17% | % inhibition Apol 40' (DRC-2; 40'; concentration 2.5): 4.3% | % inhibition Apol 40' (DRC-2; 40'; concentration 5): 18% | % inhibition Apol 40' (DRC-2; 40'; concentration 10): 30% | % inhibition Apol 40' (DRC-2; 40'; concentration 20): 44% | % inhibition Apol 40' (DRC-2; 40'; concentration 40): 51% | % inhibition Apol 40' (DRC-2; 40'; concentration 80): 53% | % inhibition ApPOL 90' (DRC-2; 90'; concentration 2.5): 3.29% | % inhibition ApPOL 90' (DRC-2; 90'; concentration 5): 17% | % inhibition ApPOL 90' (DRC-2; 90'; concentration 10): 29% | % inhibition ApPOL 90' (DRC-2; 90'; concentration 20): 46% | % inhibition ApPOL 90' (DRC-2; 90'; concentration 40): 57% | % inhibition ApPOL 90' (DRC-2; 90'; concentration 80): 62% | % inhibition apPOL 180' (DRC-2; 180'; concentration 2.5): -0.478% | % inhibition apPOL 180' (DRC-2; 180'; concentration 5): 11% | % inhibition apPOL 180' (DRC-2; 180'; concentration 10): 23% | % inhibition apPOL 180' (DRC-2; 180'; concentration 20): 40% | % inhibition apPOL 180' (DRC-2; 180'; concentration 40): 60% | % inhibition apPOL 180' (DRC-2; 180'; concentration 80): 68% | % inhibition ApPOL 90' (conc. 5; 90'; DRC-2): 17% | % inhibition Apo pol 5' (conc. 10; 5'; DRC-2): 22% | % inhibition Apo pol 5' (conc. 40; 5'; DRC-2): 22% | % inhibition Apo pol 5' (conc. 80; 5'; DRC-2): 17% | DNA Pol (primary screen value by plate and well; 90 min, 10 µM): 50 | DNA Pol [1]: 50

Oc1cccnc1/N=C/c1cc(I)cc(I)c1O [KU0073720]
% inhibition Apo pol 10' (DRC-1; concentration 2.5; 10'): 24.1498% | % inhibition Apol 90' (DRC-1; concentration 2.5; 90'): 12.6325% | % inhibition apPOL 180' (DRC-1; concentration 2.5; 180'): 7.269% | % inhibition Apo pol 10' (DRC-1; concentration 5; 10'): 35.1256% | % inhibition Apol 90' (DRC-1; concentration 5; 90'): 18.9546% | % inhibition apPOL 180' (DRC-1; concentration 5; 180'): 7.696% | % inhibition Apo pol 10' (DRC-1; concentration 10; 10'): 54.1581% | % inhibition Apol 90' (DRC-1; concentration 10; 90'): 35.5541% | % inhibition apPOL 180' (DRC-1; concentration 10; 180'): 22.0989% | % inhibition Apo pol 10' (DRC-1; concentration 20; 10'): 82.6757% | % inhibition Apol 90' (DRC-1; concentration 20; 90'): 72.4882% | % inhibition apPOL 180' (DRC-1; concentration 20; 180'): 62.032% | % inhibition Apo pol 10' (DRC-1; concentration 40; 10'): 88.0061% | % inhibition Apol 90' (DRC-1; concentration 40; 90'): 85.8588% | % inhibition apPOL 180' (DRC-1; concentration 40; 180'): 82.0572% | % inhibition Apo pol 10' (DRC-1; concentration 80 (unit not given); 10'): 86.1265% | % inhibition Apol 90' (DRC-1; concentration 80; 90'): 87.3428% | % inhibition apPOL 180' (DRC-1; concentration 80; 180'): 87.5745% | % inhibition Apo pol 5' (DRC-2; 5'; concentration 40): 63% | % inhibition Apol 40' (DRC-2; 40'; concentration 20): 63% | % inhibition Apo pol 5' (DRC-2; concentration 2.5; 5'): 26% | % inhibition Apol 40' (DRC-2; concentration 2.5; 40'): 24% | % inhibition ApPOL 90' (DRC-2; concentration 2.5; 90'): 22% | % inhibition apPOL 180' (DRC-2; concentration 2.5; 180'): 15% | % inhibition Apo pol 5' (DRC-2; concentration 5; 5'): 36% | % inhibition Apol 40' (DRC-2; concentration 5; 40'): 33% | % inhibition ApPOL 90' (DRC-2; concentration 5; 90'): 28% | % inhibition apPOL 180' (DRC-2; concentration 5; 180'): 17% | % inhibition Apo pol 5' (DRC-2; concentration 10; 5'): 51% | % inhibition Apol 40' (DRC-2; concentration 10; 40'): 52% | % inhibition ApPOL 90' (DRC-2; concentration 10; 90'): 49% | % inhibition apPOL 180' (DRC-2; concentration 10; 180'): 37% | % inhibition Apo pol 5' (DRC-2; concentration 20; 5'): 57% | % inhibition Apol 40' (DRC-2; concentration 20; 40'): 63% | % inhibition ApPOL 90' (DRC-2; concentration 20; 90'): 62% | % inhibition apPOL 180' (DRC-2; concentration 20; 180'): 54% | % inhibition Apo pol 5' (DRC-2; concentration 40; 5'): 63% | % inhibition Apol 40' (DRC-2; concentration 40; 40'): 73% | % inhibition ApPOL 90' (DRC-2; concentration 40; 90'): 75% | % inhibition apPOL 180' (DRC-2; concentration 40; 180'): 74% | % inhibition Apo pol 5' (DRC-2; concentration 80; 5'): 58% | % inhibition Apol 40' (DRC-2; concentration 80; 40'): 72% | % inhibition ApPOL 90' (DRC-2; concentration 80; 90'): 76% | % inhibition apPOL 180' (DRC-2; concentration 80; 180'): 77% | DNA Pol [1]: 46 | DNA Pol (primary screen value; head prints only 'DNA Pol'; 90 min, 10 µM): 46
